From patent US20160038454A1, “INTRAVENOUS FORMULATIONS OF […] AS IMMUNOMODULATORS AND […] AGENTS” (priority 2013, published 2016)
Entries after “also recorded” stand apart in the source; their conditions may differ.

Key:
[1] = test system: human T cell lymphoma (Jurkat) cells; assay: in vitro; format: cell-based
Procedure: Test compounds may be dissolved in DMSO at a concentration of 20 mM. Further dilutions may be done in RPMI1640 medium (GIBCO, Rockville, Md.) supplemented with 10% Fetal Calf Serum (HyClone Laboratories, Logan, Utah).
Cytotoxicity of the compounds is determined in a standard MTT assay using Cell Proliferation Kit I (#1 465 007, Roche Diagnostics, Mannheim, Germany). Briefly, human T cell lymphoma (Jurkat) cells (4×10^5 per well) are cultured for 24 h, in 96-well tissue culture plates, in the presence of serial three-fold dilutions of test compounds or medium containing the same concentration of DMSO as in the test samples at each dilution point. The cultures are then supplemented with 10 μl/well MTT reagent for 4 h and then with 0.1 ml/well solubilizing reagent for an additional 16 h. Optical density at 570 nm (OD570) is measured on a ThermoScan microplate reader (Molecular Devices, Menlo Park, Calif.).

[2] = test system: IL-2 production by Jurkat cells; assay: cells; format: cell-based, human
Procedure: Test samples can be diluted to 1 mM in complete tissue culture medium. Aliquots are placed in microculture plates coated with anti-CD3 antibody (used to stimulate the production of IL-2 by Jurkat cells), and serial dilutions are prepared so that the final concentration encompass the range of 0.001 to 10,000 nM in log increments. Cells from an exponentially expanding culture of Jurkat human T cell line (#TIB-152 obtained from American Type Culture Collection, Manassas, Va.) are harvested, washed once by centrifugation, re-suspended in complete tissue culture medium, and diluted to a concentration of 2×10^6 cells/ml. A volume of 50 μl of Jurkat cells (1×10^5 cells) is added to wells containing 100 μl of the diluted compounds, 50 μl of PMA (10 ng/ml) is added to each well, and the plates are incubated at 37° C. in a 5% CO2 incubator. After 24 hours, the plates are centrifuged to pellet the cells, 150 μl of supernatant is removed from each well, and the samples are stored at −20° C. The stored supernatants are analyzed for human IL-2 concentration using the Luminex 100 (Luminex Corporation, Austin, Tex.), Luminex microspheres coupled with anti-IL-2 capture antibody, and fluorochrome-coupled anti-IL-2 detection antibody. The data are expressed as pg/ml of IL-2.

[3] = test system: MV4-11 cells; assay: Synergy with AML drugs in vitro; format: cell-based; details: MV4-11 cells in vitro
Source text: Another consequence of XPB binding is the inhibition of nucleotide excision repair.

[4] = Jurkat cells, comparison with triptolide or PG490-88
[5] = incubated in human serum compared with mouse serum

Structure (SMILES): CC(C)[C@]12O[C@H]1[C@@H]1O[C@]13[C@]1(O[C@H]1C[C@H]1c4c(C(=O)c5ccccc5)oc(OC(=O)c5ccccc5)c4CC[C@@]13C)[C@@H]2O [PG796, 18-deoxo-19-dehydro-18-benzoyloxy-19-benzoyl triptolide]
- cytotoxic activity in MTT assay (in words) [1, 4]: cytotoxic; also recorded: higher level of activity
- activity in MTT assay after incubation in human serum vs mouse serum [1, 5]: high, and essentially equivalent, activity
- IL-2 inhibition (in words) [2, 4]: inhibited IL-2 production; also recorded: higher level of activity
- activity in IL-2 inhibition assay after incubation in human serum vs mouse serum [2, 5]: high, and essentially equivalent, activity
- synergy with cytarabine [3]: synergy was demonstrated
- synergy with idarubicin [3]: synergy was demonstrated
